Data: US5525596A, “Absorption enhancer/solubilizer combination for improved bioavailability of a zwitterionic compound” (Merck & Co., Inc., priority 1994, dated 1996)
Like-named read-outs stand apart in the source and are kept apart here.

Legend:
[1] = Biliary excretion in rats; format: in vivo, rat
Procedure: (§1) Solutions of palmitoyl carnitine, β-cyclodextrin and an [R-(R*,R*)]-3-[(2-hydroxypropyl)amino]-3-methyl-N-[2,3,4,5-tetrahydro-2-oxo-1-[[2'-(H-tetrazol-5-yl)[1,1'-biphenyl]-4-yl]methyl]-1H-1-benzazepin-3-yl]butanamide having the following structure: [drawing 1] hereinafter referred to as [R-(R*,R*)]-3-[(2-hydroxypropyl)amino]-3-methyl-N-[2,3,4,5-tetrahydro-2-oxo-1-[[2'-(H-tetrazol-5-yl)[1,1'-biphenyl]-4-yl]methyl]-1H-1-benzazepin-3-yl]butanamide were prepared such that [R-(R*,R*)]-3-[(2-hydroxypropyl)amino]-3-methyl-N-[2,3,4,5-tetrahydro-2-oxo-1-[[2'-(H-tetrazol-5-yl)[1,1'-biphenyl]-4-yl]methyl]-1H-1-benzazepin-3-yl]butanamide was maintained at 2 mg/ml. All solutions were prepared in Krebs-Henseleit buffer at Ph 7.4. The solutions were administered to ligated sections of the jejunum of anesthetized rats. […] The bile was collected in 15 minute intervals for 3.5 hours and analyzed for [R-(R*,R*)]-3-[(2-hydroxypropyl)amino]-3-methyl-N-[2,3,4,5-tetrahydro-2-oxo-1-[[2'-(H-tetrazol-5-yl)[1,1'-biphenyl]-4-yl]methyl]-1H-1-benzazepin-3-yl]butanamide content. From the bile volume, the total amount of drug eliminated could be calculated. After an IV dose, 92% of the drug is found in the bile. Therefore all value were divided by 0.92 to give true absorption values. These values are given in table 1, along with standard deviations which were observed.

[2] = Jejunal absorption of drug solutions from ligated sections of the jejunum of anesthetized rats (bile collection); format: in vivo; settings: rat, pH 7.4, solution 2 mg/ml drug, read-out: % of Dose Absorbed Relative to IV (+/- s.d.)
Procedure: as §1

[3] = Plasma/blood exposure after administration of compressed tablets to the duodenum of dogs; format: in vivo, dog; settings: tablet, 1 mg/kg drug, 10 mg/kg palmitoyl carnitine chloride, four hours
Procedure: Compressed tablets were prepared with and without 112 mg β-cyclodextrin (7.5 mg/kg), containing 15 mg of [R-(R*,R*)]-3-[(2-hydroxypropyl)amino]-3-methyl-N-[2,3,4,5-tetrahydro-2-oxo-1[[2'-(H-tetrazol-5-yl)[1,1'-biphenyl]-4-yl]methyl]-1H-1-benzazepin-3-yl]butanamide (1 mg/kg) and 150 mg palmitoyl carnitine chloride (10 mg/kg) in a tablet matrix containing 203 mg microcrystalline cellulose, 100 mg lactose, 20 mg corn starch and 2 mg magnesium stearate. The tablets were administered to the duodenum of dogs through a surgically prepared fistual. Serial blood samples were taken from the dogs for four hours after dosing and analyzed for [R-(R*,R*)]-3-[(2-hydroxypropyl)amino]-3-methyl-N -[2,3,4,5-tetra-hydro-2-oxo-1-[[2'-(H-tetrazol-5-yl)[1,1'-biphenyl]-4-yl]methyl]-1H-1-benzazepin-3-yl]butanamide. The results given as resulting area under [R-(R*,R*)]-3-[(2-hydroxy-propyl)amino] -3-methyl-N-[2,3,4,5-tetrahydro-2-oxo- 1-[[2'-(H-tetrazol-5-yl)[1,1'-biphenyl]-4-yl]methyl]-1H-1-benzazepin-3-yl]butanamide concentration-time curve ± standard deviations, are 361±168 ng min/ml in the absence of β-cyclodextrin and […] in the presence of β-cyclodextrin.

[4] = Absorption of solid formulations (powders, tablets, beads) from unligated sections of the jejunum of anesthetized rats (bile collection); format: in vivo; settings: rat
Procedure: as §1
Powders were prepared so as to contain in each dose, 2 mg/kg of [R-(R*,R*)]-3-[(2-hydroxypropyl)amino]-3-methyl-N-[2,3,4,5-tetrahydro-2-oxo-1-[[2'-(H-tetrazol-5-yl)[1,1'-biphenyl]-4-yl]methyl]-1H-1-benzazepin-3-yl]butanamide, 0-10 mg/kg palmitoyl carnitine chloride, 0-15 mg/kg β-cyclodextrin and microcrystalline cellulose. The powders were administered to unligated sections of the jujunum of anesthetized rats. Bile was collected and the absorption of [R-(R*,R*)]-3-[(2-hydroxypropyl)amino]-3-methyl-N-[2,3,4,5-tetrahydro-2-oxo-1-[[2'-(H-tetrazol-5-yl)[1,1'-biphenyl]-4-yl]methyl]-1H-1-benzazepin-3-yl]butanamide was determined as in Example 1. The results of these studies are provided in Table 2, along with observed standard deviations.
Lyophilized preparations of [R-(R*,R*)]-3-[(2-hydroxypropyl)amino]-3-methyl-N-[2,3,4,5-tetrahydro-2-oxo-1-[[2'-(H-tetrazol-5-yl)[1,1'-biphenyl]-4-yl]methyl]-1H-1-benzazepin-3-yl]butanamide were prepared from solutions containing 2 mg/ml of [R-(R*,R*)]-3-[(2-hydroxypropyl)amino]-3-methyl-N-[2,3,4,5-tetrahydro-2-oxo-1-[[2'-(H-tetrazol-5-yl)[1,1'-biphenyl]-4-yl]methyl]-1H-1-benzazepin-3-yl]butanamide and 15 mg/ml of β-cyclodextrin or 20 mg/ml hydroxypropyl-β-cyclodextrin. The lyophilized preparations were mixed with palmitoyl carnitine chloride and microcrystalline cellulose and compressed into tablets. The tablets contained 2 mg/kg of [R-(R*,R*)]-3-[(2-hydroxypropyl)amino]-3 -methyl -N-[2,3,4,5,-tetrahydro-2-oxo-1-[[2'-(H-tetrazol-5-yl)[1,1'biphenyl]-4-yl]methyl-1H1-benzazepin-3-yl]butanamide and 10 mg/kg palmitoyl carnitine chloride. The tablets were administered to the unligated sections of the jejunum of anesthetized rats. Bile was collected and the absorption of [R-(R*,R*)]-3-[(2-hydroxypropyl) amino]-3 -methyl -N- [2,3,4,5 -tetrahydro-2-oxo-1-[[2'-(H-tetrazol-5-yl)[1,1'-biphenyl]-4-yl]methyl]-1H- 1-benzazepin-3-yl]butanamide determined as in Example 1. The percentage absorption of [R-(R*,R*)]-3-[(2-hydroxypropyl)amino]-3-methyl-N-[2,3,4,5-tetrahydro-2-oxo-1-[[2'-(H-tetrazol-5-yl)[1,1'-biphenyl]-4-yl]methyl]-1H-1-benzazepin-3-yl]butanamide from the lyophilized formulation containing β-cyclodextrinwas 28.2±18.3 and from the hydroxpropyl-β-cyclodextrin, 7.5±6.2.
Fifteen parts of water were added to a mixture of [R-(R*,R*)]-3-[(2-hydroxypropyl)amino]-3-methyl-N-[2,3,4,5-tetrahydro-2-oxo-1-[[2'-(H-tetrazol-5-yl)[1,1'-biphenyl]-4-methyl]-1H-1-benzazepin-3-yl]butanamide, β-cyclodextrin, palmitoyl carnitine chloride, micro-crystalline cellulose and starct (2:15:10:15:10). The preparation was extruded through a screen ([…]) and spheronized. […]

- dose excreted ([1]; rat, bile, after an IV dose, read-out: drug found in the bile): 92%
- Fa at 3.5 h ([2]; palmitoyl carnitine chloride 0 mg/kg, β-cyclodextrin 0 mg/kg): 4.98 ± 5.67%
- Fa at 3.5 h ([2]; palmitoyl carnitine chloride 0 mg/kg, β-cyclodextrin 7.5 mg/kg): 3.1 ± 1.59%
- Fa at 3.5 h ([2]; palmitoyl carnitine chloride 0 mg/kg, β-cyclodextrin 15 mg/kg): 12 ± 7.23%
- Fa at 3.5 h ([2]; palmitoyl carnitine chloride 5 mg/kg, β-cyclodextrin 0 mg/kg): 11.9 ± 2.6%
- Fa at 3.5 h ([2]; palmitoyl carnitine chloride 5 mg/kg, β-cyclodextrin 7.5 mg/kg): 14 ± 5.4%
- Fa at 3.5 h ([2]; palmitoyl carnitine chloride 5 mg/kg, β-cyclodextrin 15 mg/kg): 20.4 ± 15.2%
- Fa at 3.5 h ([2]; palmitoyl carnitine chloride 10 mg/kg, β-cyclodextrin 0 mg/kg): 22.6 ± 13.5%
- Fa at 3.5 h ([2]; palmitoyl carnitine chloride 10 mg/kg, β-cyclodextrin 7.5 mg/kg): 29.6 ± 8.2%
- Fa at 3.5 h ([2]; palmitoyl carnitine chloride 10 mg/kg, β-cyclodextrin 15 mg/kg): 49.3 ± 13.4%
- AUC at 4 h ([3]; dog, blood, absence of β-cyclodextrin, read-out: area under concentration-time curve ± standard deviations (converted)): 6.02 ng·h/mL
- area under concentration-time curve ± standard deviations ([3]; presence of β-cyclodextrin (7.5 mg/kg)): 19.8 ± 8.18 ng·h/mL
- Fa ([4]; 2 mg/kg, powder, 2 mg/kg drug, palmitoyl carnitine chloride 0 mg/kg, β-cyclodextrin 0 mg/kg, read-out: absorption determined as in Example 1 (± standard deviation)): 0.18 ± 0.26%
- Fa ([4]; 2 mg/kg, powder, 2 mg/kg drug, palmitoyl carnitine chloride 10 mg/kg, β-cyclodextrin 0 mg/kg, read-out: absorption determined as in Example 1 (± standard deviation)): 3.3 ± 1.9%
- Fa ([4]; 2 mg/kg, powder, 2 mg/kg drug, palmitoyl carnitine chloride 10 mg/kg, β-cyclodextrin 7.5 mg/kg, read-out: absorption determined as in Example 1 (± standard deviation)): 8.9 ± 7.6%
- Fa ([4]; 2 mg/kg, powder, 2 mg/kg drug, palmitoyl carnitine chloride 10 mg/kg, β-cyclodextrin 15 mg/kg, read-out: absorption determined as in Example 1 (± standard deviation)): 14.8 ± 9.8%
- Fa ([4]; 2 mg/kg, tablet of lyophilized formulation containing β-cyclodextrin (15 mg/ml in solution), 2 mg/kg drug, 10 mg/kg palmitoyl carnitine chloride, read-out: percentage absorption): 28.2 ± 18.3%
- Fa ([4]; spheronized beads, drug:β-cyclodextrin:palmitoyl carnitine chloride:microcrystalline cellulose:starch 2:15:10:15:10, read-out: absorption): 8.8%
- Fa ([4]; tablet of lyophilized formulation containing hydroxypropyl-β-cyclodextrin (20 mg/ml in solution), 2 mg/kg drug, 10 mg/kg palmitoyl carnitine chloride, read-out: percentage absorption): 7.5 ± 6.2%
Compound: C[C@@H](O)CNC(C)(C)CC(=O)N[C@@H]1CCc2ccccc2N(Cc2ccc(-c3ccccc3-c3nnn[nH]3)cc2)C1=O [[R-(R*,R*)]-3-[(2-hydroxypropyl)amino]-3-methyl-N-[2,3,4,5-tetrahydro-2-oxo-1-[[2'-(H-tetrazol-5-yl)[1,1'-biphenyl]-4-yl]methyl]-1H-1-benzazepin-3-yl]butanamide]
- route of excretion [1]: excreted almost exclusively unchanged in the bile
